# Reference: patent US20250090540A1, “PI3K-ALPHA INHIBITORS AND METHODS OF USE THEREOF” (Relay Therapeutics, Inc., priority 2021, published 2025)
# Molecular target: H1047R PIK3CA enzyme (Homo sapiens, UniProt P42336, H1047R)
# Assay: ADP-Glo Biochemical PIK3CA Kinase Assay
# Conditions: not given
# Method: Compounds to be assayed were plated in 16 doses of 1:2 serial dilutions (20 nL volume each well) on a 1536-well plate, and the plate warmed to room temperature. PIK3CA enzyme (e.g. H1047R, E542K, E545K, or wild-type) (1 μL of 2 nM solution in Enzyme Assay Buffer (comprising 50 mM HEPES pH 7.4, 50 mM NaCl, 6 mM MgCl2, 5 mM DTT and 0.03% CHAPS)) was added and shaken for 10 seconds and preincubated for 30 minutes. To the well was added 1 μL of 200 μM ATP and 20 μM of diC8-PIP2 in Substrate Assay Buffer (50 mM HEPES pH7.4, 50 mM NaCl, 5 mM DTT and 0.03% CHAPS) to start the reaction, and the plate was shaken for 10 seconds, then spun briefly at 1500 rpm, and then incubated for 60 minutes at room temperature. The reaction was stopped by adding 2 μL of ADP-Glo reagent (Promega), and spinning briefly at 1500 rpm, and then incubating for 40 minutes. ADP-Glo Detection reagent (Promega) was added and the plate spun briefly at 1500 rpm, then incubated for 30 minutes.
# Sequence of H1047R PIK3CA enzyme (P42336 whole entry H1047R): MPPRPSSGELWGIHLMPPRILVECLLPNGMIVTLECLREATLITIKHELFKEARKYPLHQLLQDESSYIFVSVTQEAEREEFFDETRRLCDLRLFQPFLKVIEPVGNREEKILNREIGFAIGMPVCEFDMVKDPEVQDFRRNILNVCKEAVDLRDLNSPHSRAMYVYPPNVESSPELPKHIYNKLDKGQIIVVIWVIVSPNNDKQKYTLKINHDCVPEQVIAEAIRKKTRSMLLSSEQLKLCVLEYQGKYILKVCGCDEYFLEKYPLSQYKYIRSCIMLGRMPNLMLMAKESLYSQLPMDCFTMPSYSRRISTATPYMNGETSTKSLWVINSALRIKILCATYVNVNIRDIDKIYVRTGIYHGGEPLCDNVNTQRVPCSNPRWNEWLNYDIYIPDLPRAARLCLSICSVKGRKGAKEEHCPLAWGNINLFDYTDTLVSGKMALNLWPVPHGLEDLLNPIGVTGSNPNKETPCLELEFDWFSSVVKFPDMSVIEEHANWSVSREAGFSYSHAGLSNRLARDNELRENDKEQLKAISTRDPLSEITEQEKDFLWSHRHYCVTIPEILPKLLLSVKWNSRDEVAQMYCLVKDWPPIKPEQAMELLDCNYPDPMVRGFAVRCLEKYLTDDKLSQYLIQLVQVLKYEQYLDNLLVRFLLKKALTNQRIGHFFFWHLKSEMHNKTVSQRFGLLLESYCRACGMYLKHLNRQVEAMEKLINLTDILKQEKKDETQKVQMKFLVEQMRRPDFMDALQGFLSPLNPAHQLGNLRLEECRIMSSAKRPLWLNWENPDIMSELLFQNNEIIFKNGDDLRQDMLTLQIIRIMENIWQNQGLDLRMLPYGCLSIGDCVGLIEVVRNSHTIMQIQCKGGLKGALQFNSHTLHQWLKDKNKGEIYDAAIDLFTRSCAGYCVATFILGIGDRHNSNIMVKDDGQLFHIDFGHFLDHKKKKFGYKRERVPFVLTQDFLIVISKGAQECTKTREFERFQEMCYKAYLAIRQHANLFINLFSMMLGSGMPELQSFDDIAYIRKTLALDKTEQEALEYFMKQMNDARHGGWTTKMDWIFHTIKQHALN
# Sequence of H1047R PIK3CA enzyme (P27986 whole entry partner): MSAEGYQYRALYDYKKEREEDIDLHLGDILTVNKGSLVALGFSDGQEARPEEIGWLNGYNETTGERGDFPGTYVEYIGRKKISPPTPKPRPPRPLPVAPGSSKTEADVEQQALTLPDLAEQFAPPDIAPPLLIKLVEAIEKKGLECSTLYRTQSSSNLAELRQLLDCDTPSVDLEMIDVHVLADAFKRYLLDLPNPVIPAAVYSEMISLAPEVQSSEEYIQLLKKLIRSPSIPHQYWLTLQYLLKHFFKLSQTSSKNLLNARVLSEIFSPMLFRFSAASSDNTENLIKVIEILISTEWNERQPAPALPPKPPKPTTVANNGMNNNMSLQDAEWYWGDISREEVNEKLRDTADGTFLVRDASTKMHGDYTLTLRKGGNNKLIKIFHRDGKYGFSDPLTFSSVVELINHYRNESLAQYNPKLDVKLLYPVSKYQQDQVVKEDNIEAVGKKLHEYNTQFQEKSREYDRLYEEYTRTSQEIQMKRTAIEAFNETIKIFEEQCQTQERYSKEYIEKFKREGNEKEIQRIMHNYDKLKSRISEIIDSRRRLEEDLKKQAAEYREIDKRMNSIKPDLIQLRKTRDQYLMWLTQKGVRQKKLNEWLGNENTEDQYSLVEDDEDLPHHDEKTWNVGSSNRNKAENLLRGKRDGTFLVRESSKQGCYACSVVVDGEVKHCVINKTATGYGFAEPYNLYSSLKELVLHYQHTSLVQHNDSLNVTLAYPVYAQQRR
row,Structure (SMILES),IC50 [µM]
1,Cc1ccccc1Nc1ncc(N2CC(N)C2)cc1NC(=O)c1cc(F)cc(C(F)(F)F)c1 [I-73],1 to 10
2,Cc1ccccc1Nc1ncc(-c2cnn(C)c2)cc1NC(=O)c1cccc(C#N)c1 [I-116],10 to 100
3,Cc1ccccc1Nc1ncc(-c2cnn(C)c2)cc1NS(=O)(=O)c1ccccc1 [I-172],10 to 100
4,"CNC(=O)c1cc(NC(=O)c2cc(F)cc(C(F)(F)F)c2)c(Nc2cc(F)ccc2Cl)s1 [I-827, 5-((2-chloro-5-fluorophenyl)amino)-4-(3-fluoro-5-(trifluoromethyl)benzamido)-N-methylthiophene-2-carboxamide]",0.5 to 1
5,Cc1ccccc1Nc1ncc(-c2ccc(CNC(=O)OC(C)(C)C)cc2)cc1NC(=O)c1cc(F)cc(C(F)(F)F)c1 [I-76],1 to 10
6,CNC(=O)c1cnc(Nc2ccccc2C)c(NC(=O)Cc2ccccc2S(C)(=O)=O)c1 [I-306],10 to 100
7,Cc1ccccc1Nc1ncc(-c2cnn(C)c2)cc1NC(=O)c1cc(F)cc(Br)c1 [I-96],0.5 to 1
8,Cc1cccc(C(=O)Nc2cc(-c3cnn(C)c3)cnc2Nc2ccccc2C)c1 [I-115],10 to 100
9,CNC(=O)c1cnc(Nc2ccccc2C)c(NC(=O)c2nccc3ccccc23)c1 [I-233],10 to 100
10,O=C1C[C@H](CCO)[C@@H](CNC(=O)c2cc(F)cc(C(F)(F)F)c2)[C@H](c2cc(F)ccc2Cl)N1 (racemic) [I-821],10 to 100
11,Cc1ccc(Nc2ncc(C(=O)NCc3cnn(C)c3)cc2NC(=O)c2csc3ccccc23)cc1 [I-224],10 to 100
12,Cc1cnc(Nc2ccccc2C)c(NC(=O)c2cc(F)cc(C(F)(F)F)c2)c1 [I-19],10 to 100
13,CNC(=O)c1cnc(Nc2ccccc2C)c(NC(=O)c2ccnc3ccccc23)c1 [I-157],10 to 100
14,CNC(=O)c1cnc(Nc2ccccc2C)c(NC(=O)c2csc(C)n2)c1 [I-242],10 to 100
15,CNC(=O)c1cnc(NC(CO)CCO)c(NC(=O)c2cc(F)cc(C(F)(F)F)c2)c1 (stereo not drawn) [I-814],10 to 100
16,Cc1ccccc1Nc1cnccc1NC(=O)c1cc(F)cc(C(F)(F)F)c1 [I-220],1 to 10
17,CC1CCc2ccccc2N1c1ncc(C(=O)NCc2nccs2)cc1NC(=O)c1csc2ccccc12 (stereo not drawn) [I-217],1 to 10
18,O=C(Nc1cc(-c2ccc3ncnn3c2)cnc1Nc1cc(F)ccc1Cl)c1cc(F)cc(C(F)(F)F)c1 [I-804],10 to 100
19,Cc1ccccc1N[C@H]1CCN(C(=O)C2(O)CC2)C[C@H]1C(=O)Nc1cc(F)cc(C(F)(F)F)c1 (racemic) [I-227],10 to 100
20,CNC(=O)c1cnc(Nc2ccccc2C)c(NC(=O)c2csc3c2CCCC3)c1 [I-340],1 to 10

row,Structure (SMILES),IC50 [µM]
1,CNC(=O)c1cnc(Nc2ccccc2C)c(NC(=O)c2cc(F)c3cc[nH]c3c2)c1 [I-394],10 to 100
2,CNC(=O)c1cnc(Nc2ccccc2C)c(NC(=O)c2cc3c(F)cc(F)cc3[nH]2)c1 [I-5],10 to 100
3,CNC(=O)c1cnc(Nc2ccccc2C)c(NC(=O)c2c[nH]c3ccccc23)c1 [I-87],10 to 100
4,CNC(=O)c1cnc(Nc2cccc(OC)n2)c(NC(=O)c2csc3ccccc23)c1 [I-346],1 to 10
5,Cc1ccccc1Nc1ncc(-c2cnn(C)c2)cc1NC(=O)c1ccccc1C [I-127],10 to 100
6,CNC(=O)c1cnc(Nc2ccc(C)nc2)c(NC(=O)c2cc(F)cc(C(F)(F)F)c2)c1 [I-201],10 to 100
7,Cc1ccccc1Nc1ncc(C(=O)NC2CS(=O)(=O)C2)cc1NC(=O)c1cc2ccccc2o1 [I-357],10 to 100
8,Cc1ccccc1Nc1ncc(-c2cnn(CCO)c2)cc1NC(=O)c1cc(F)cc(C(F)(F)F)c1 [I-147],0.5 to 1
9,O=C(Nc1ccnn1-c1ccccc1)c1cc(F)cc(C(F)(F)F)c1 [I-806],10 to 100
10,CNC(=O)c1cnc(Nc2ccccc2C)c(NC(=O)c2cc(F)c3ccccc3c2)c1 [I-322],10 to 100
11,"O=C(Nc1cc(-c2cnn(C(F)F)c2)cnc1Nc1cc(F)ccc1Cl)c1cc(F)cc(C(F)(F)F)c1 [I-803, N-(2-((2-chloro-5-fluorophenyl)amino)-5-(1-(difluoromethyl)-1H-pyrazol-4-yl)pyridin-3-yl)-3-fluoro-5-(trifluoromethyl)benzamide]",1 to 10
12,CNC(=O)c1cnc(Nc2ccccc2C)c(NC(=O)[C@H](N)C2CCCCC2)c1 (stereo in doubt) [I-142],10 to 100
13,Cc1ccccc1Nc1ncc(-c2cnn(C)c2)cc1NC(=O)c1ccccc1S(C)(=O)=O [I-128],10 to 100
14,CNC(=O)c1cnc(Nc2ccccc2C)c(NC(=O)Cc2c(F)ccc(F)c2F)c1 [I-164],10 to 100
15,CNC(=O)c1cnc(Nc2ccccc2C)c(NC(=O)Cc2ccc(OCc3ccccc3)c(OCc3ccccc3)c2)c1 [I-14],10 to 100
16,Cc1ccccc1Nc1ncc(C(O)CO)cc1NC(=O)c1cc(F)cc(C(F)(F)F)c1 (stereo not drawn) [I-351],1 to 10
17,CNC(=O)c1cnc(NCCOC)c(NC(=O)c2cc(F)cc(C(F)(F)F)c2)c1 [I-358],10 to 100
18,CNC(=O)c1cnc(Nc2ccccc2C)c(NCc2cc(F)cc(C(F)(F)F)c2)c1 [I-85],10 to 100
19,Cc1ccccc1Nc1ncc(-c2ccccc2C#N)cc1NC(=O)c1cc(F)cc(C(F)(F)F)c1 [I-83],0.5 to 1

# Same assay, conditions: ADP-Glo biochemical PIK3CA kinase assay
row,Structure (SMILES),IC50 [µM]
1,O=C(O)c1cnc(N2CCOc3ccccc32)c(NC(=O)c2csc3ccccc23)c1 [I-631],1 to 10
2,CNC(=O)c1cnc(Nc2ccccc2C)c(NC(=O)c2n[nH]c3ccc(C#N)cc23)c1 [I-455],10 to 100
3,"Cc1ccccc1Nc1ncc(C(=O)N[C@@H]2CC[C@@H](C(=O)O)C2)cc1NC(=O)c1csc2ccccc12 (single isomer, unassigned) [I-661]",1 to 10
4,Cc1cc(CC(C)NC(=O)c2cnc(Nc3ccccc3C)c(NC(=O)c3csc4ccccc34)c2)on1 (stereo not drawn) [I-614],1 to 10
5,COC(=O)c1cnc(N)c(NC(=O)c2csc3ccccc23)c1 [I-674],1 to 10
6,CNC(=O)c1cnc(Nc2ncccc2C(C)C)c(NC(=O)c2csc3ccccc23)c1 [I-731],1 to 10
7,CNC(=O)c1cnc(Nc2ccccc2C)c(NC(=O)c2cnc3ccc(F)cn23)c1 [I-469],10 to 100
8,CNC(=O)c1cnc(Nc2ccccc2C)c(NC(=O)C2CCc3ccccc3O2)c1 (stereo not drawn) [I-649],1 to 10
9,Nc1cc(C(=O)NC2CS(=O)(=O)C2)cnc1N1CCOc2ccccc21 [I-630],1 to 10
10,CNC(=O)c1cnc(Nc2ccccc2C)c(NC(=O)c2cnc(O)cc2C(F)(F)F)c1 [I-416],10 to 100
11,CNC(=O)c1cnc(Nc2ccccc2C)c(N(CC(N)=O)C(=O)c2csc3ccccc23)c1 [I-776],1 to 10
12,CNC(=O)c1cnc(Nc2ccccc2C)c(NC(=O)c2cc(Cl)cc3cccnc23)c1 [I-470],10 to 100
13,CNC(=O)c1cnc(Nc2ccccc2C)c(NC(=O)c2csc3cc(F)cc(F)c23)c1 [I-404],10 to 100
14,CNC(=O)c1cnc(Nc2ccccc2C)c(NC(=O)C2CCCC3CCCCC32)c1 (stereo not drawn) [I-464],10 to 100
15,CNC(=O)c1cnc(Nc2ccccc2C)c(NC(=O)c2cc(F)c(C(F)(F)F)c(F)c2)c1 [I-717],0.5 to 1
16,CNC(=O)c1cnc(Nc2ccccc2C)c(NC(=O)c2cccc(COC)c2)c1 [I-577],1 to 10
17,CNC(=O)c1cnc(Nc2ccccc2C)c(NC(=O)c2coc3c(F)cc(Cl)cc23)c1 [I-766],0.5 to 1
18,CCc1c(Cl)c(C(=O)Nc2cc(C(=O)NC)cnc2Nc2ccccc2C)nn1C [I-465],10 to 100

row,Structure (SMILES),IC50 [µM]
1,CNC(=O)c1cnc(Nc2ccccc2C)c(NC(=O)c2ccc(Cl)c(C)c2F)c1 [I-537],10 to 100
2,CNC(=O)c1cnc(NCCC#N)c(NC(=O)c2cc(F)cc(C(F)(F)F)c2)c1 [I-550],1 to 10
3,CC1COCCN1c1ncc(C(=O)N[C@H]2C[C@@H](C(N)=O)C2)cc1NC(=O)c1csc2ccccc12 (stereo partly drawn) [I-770],1 to 10
4,Cc1ccccc1Nc1ncc(C(=O)N2CC(C)(O)C2)cc1NC(=O)c1csc2ccccc12 [I-620],1 to 10
5,CNC(=O)c1cnc(Nc2ccccc2C)c(NC(=O)c2cc(Br)cc(C(C)C)c2)c1 [I-476],10 to 100
6,Cc1ccccc1Nc1ncc(C(=O)NCC2(O)CCCC2)cc1NC(=O)c1csc2ccccc12 [I-562],0.5 to 1
7,"CNC(=O)c1cnc(N2CCC[C@@H]3CCC[C@@H]32)c(NC(=O)c2csc3ccccc23)c1 (single isomer, unassigned) [I-633]",1 to 10
8,CNC(=O)c1cnc(Nc2ccccc2C)c(NC(=O)c2cccc(F)c2Cl)c1 [I-566],1 to 10
9,CNC(=O)c1cnc(Nc2ccccc2C)c(NC(=O)C2CCc3cccc(Cl)c32)c1 (stereo not drawn) [I-477],10 to 100
10,Cc1ccccc1Nc1ncc(C(=O)NCc2ccc(Cl)cc2)cc1NC(=O)c1cc(F)cc(C(F)(F)F)c1 [I-702],0.5 to 1
11,CNC(=O)c1cnc(Nc2ccccc2C)c(NC(=O)c2cc(Cl)nc(C(F)(F)F)c2)c1 [I-762],0.5 to 1
12,CNC(=O)c1cnc(Nc2ccccc2C)c(NC(=O)c2cc(Br)cc3ccccc23)c1 [I-461],10 to 100
13,CNC(=O)c1cnc(Nc2ccccc2C)c(NC(=O)c2ccn3ccnc3c2)c1 [I-647],1 to 10
14,Nc1cnc(Nc2cc(F)ccc2Cl)c(NC(=O)c2cc(F)cc(C(F)(F)F)c2)c1 [I-780],10 to 100
15,CNC(=O)c1cnc(Nc2ccccc2C)c(NC(=O)c2cccc3cc(C)[nH]c23)c1 [I-421],1 to 10
16,CCn1nccc1Nc1ncc(C(=O)NC)cc1NC(=O)c1csc2ccccc12 [I-735],1 to 10
17,Cc1ccccc1Nc1ncc(C(=O)NCc2ncccn2)cc1NC(=O)c1cc(F)cc(C(F)(F)F)c1 [I-719],1 to 10
18,CNC(=O)c1cnc(Nc2ccc3cccnc3c2)c(NC(=O)c2csc3ccccc23)c1 [I-740],1 to 10
